The target of the assay is T1, human liver GK (Homo sapiens, UniProt P35557).
T1 construct: GST (glutathione S-transferase) (N); made in house; host or cells: E. coli
T1 sequence (P35557 1-466 isoform P35557-2): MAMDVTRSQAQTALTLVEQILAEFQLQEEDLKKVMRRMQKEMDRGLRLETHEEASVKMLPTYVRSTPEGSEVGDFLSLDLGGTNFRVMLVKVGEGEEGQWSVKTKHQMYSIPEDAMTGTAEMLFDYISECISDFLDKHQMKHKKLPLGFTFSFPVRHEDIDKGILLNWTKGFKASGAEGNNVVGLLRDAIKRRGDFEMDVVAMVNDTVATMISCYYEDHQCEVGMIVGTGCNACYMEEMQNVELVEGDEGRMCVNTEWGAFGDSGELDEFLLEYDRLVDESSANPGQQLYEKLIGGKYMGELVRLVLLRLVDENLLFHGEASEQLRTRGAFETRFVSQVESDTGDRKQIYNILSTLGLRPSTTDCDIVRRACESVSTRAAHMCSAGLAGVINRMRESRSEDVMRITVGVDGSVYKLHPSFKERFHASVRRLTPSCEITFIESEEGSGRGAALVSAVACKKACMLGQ
Kind of assay: GK activation test. The class given is biochemical. The conditions noted are these: test compound concentration needed to activate 50% of maximum activation ability; 4 mM 14C-labeled glucose, 2 mM ATP, room temperature, 20 minutes. The procedure, abridged: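 GST-tagged human liver GK from E. coli (0.24 μg/well) with 4 mM 14C-glucose, 2 mM ATP in Hepes-KOH pH 7.1, KCl, MgCl2, DTT, 1% DMSO, 20 min room temperature. Labeled glucose 6-phosphate captured on anion resin, eluted and counted. EC50 = concentration giving half of maximal activation.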

Take `CC(C)(C)c1ccc(/C(=C\[C@H]2CCC(=O)N2)c2cccc(=O)[nH]2)cc1` [Example 4-186, 6-{(E)-1-(4-tert-Butylphenyl)-2-[(2R)-5-oxopyrrolidin-2-yl]ethenyl}pyridin-2(1H)-one]: the EC50 (in general, the midpoint of the concentration-response curve) was 500 to 3000 nM.

The compound `Cc1ccc(Oc2ccc(/C(=C/[C@H]3CCC(=O)N3)c3ccc(C(C)(C)C)cc3)[nH]c2=O)cc1` [Example 4-187, 6-{(E)-1-(4-tert-Butylphenyl)-2-[(2R)-5-oxopyrrolidin-2-yl]ethenyl}-3-(4-methylphenoxy)pyridin-2(1H)-one] had an EC50 of 500 to 3000 nM.

As for `CC(C)(C)c1ccc(/C(=C\[C@H]2CCC(=O)N2)c2ccc(Oc3ccc(Cl)cc3)c(=O)[nH]2)cc1` [Example 4-188, 6-{(E)-1-(4-tert-Butylphenyl)-2-[(2R)-5-oxopyrrolidin-2-yl]ethenyl}-3-(4-chlorophenoxy)pyridin-2(1H)-one], the EC50 lay in the range of 500 to 3000 nM.

`CC(C)(C)c1ccc(/C(=C\[C@H]2CCC(=O)N2)c2ccc(Oc3ccc(C(F)(F)F)cc3)c(=O)[nH]2)cc1` [Example 4-189, 6-{(E)-1-(4-tert-Butylphenyl)-2-[(2R)-5-oxopyrrolidin-2-yl]ethenyl}-3-[4-(trifluoromethyl)phenoxy]pyridin-2(1H)-one] came in with a concentration for a half-maximal effect (EC50) of 500 to 3000 nM.

As for `CC(C)(C)c1ccc(/C(=C\[C@H]2CCC(=O)N2)c2ccc(CCCCO)c(=O)[nH]2)cc1` [Example 4-190, 6-{(E)-1-(4-tert-Butylphenyl)-2-[(2R)-5-oxopyrrolidin-2-yl]ethenyl}-3-(4-hydroxybutyl)pyridin-2(1H)-one], the EC50 was in the range of 10 to 500 nM.

As for `CN(C)CCCCc1ccc(/C(=C/[C@H]2CCC(=O)N2)c2ccc(C(C)(C)C)cc2)[nH]c1=O` [Example 4-191, 6-{(E)-1-(4-tert-Butylphenyl)-2-[(2R)-5-oxopyrrolidin-2-yl]ethenyl}-3-[4-(dimethylamino)butyl]pyridin-2(1H)-one], the EC50 is 500 to 3000 nM.

Compound `CCCc1ccc(/C(=C/[C@H]2CCC(=O)N2)c2ccc(C(C)(C)C)cc2)[nH]c1=O` [Example 4-192, 6-{(E)-1-(4-tert-Butylphenyl)-2-[(2R)-5-oxopyrrolidin-2-yl]ethenyl}-3-propylpyridin-2(1H)-one] returned an EC50 of 10 to 500 nM.

`CCCCCc1ccc(/C(=C/[C@H]2CCC(=O)N2)c2ccc(C(C)(C)C)cc2)[nH]c1=O` [Example 4-193, 6-{(E)-1-(4-tert-Butylphenyl)-2-[(2R)-5-oxopyrrolidin-2-yl]ethenyl}-3-pentylpyridin-2(1H)-one] gave an EC50 of 10 to 500 nM.

Take `CC(C)(C)c1ccc(/C(=C\[C@H]2CCC(=O)N2)c2ccc(C3CCCC3)c(=O)[nH]2)cc1` [Example 4-194, 6-{(E)-1-(4-tert-Butylphenyl)-2-[(2R)-5-oxopyrrolidin-2-yl]ethenyl}-3-cyclopentylpyridin-2(1H)-one]: the EC50 lay in the range of 10 to 500 nM.

Regarding `CC(C)(C)c1ccc(/C(=C\[C@H]2CCC(=O)N2)c2ccc(CCC3CCCCC3)c(=O)[nH]2)cc1` [Example 4-195, 6-{(E)-1-(4-tert-Butylphenyl)-2-[(2R)-5-oxopyrrolidin-2-yl]ethenyl}-3-(2-cyclohexylethyl)pyridin-2(1H)-one], the concentration for a half-maximal effect (EC50) was in the range of 10 to 500 nM.

In the case of `CC(C)(C)c1ccc(/C(=C\[C@H]2CCC(=O)N2)c2ccc(CCc3ccccc3)c(=O)[nH]2)cc1` [Example 4-196, 6-{(E)-1-(4-tert-Butylphenyl)-2-[(2R)-5-oxopyrrolidin-2-yl]ethenyl}-3-(2-phenylethyl)pyridin-2(1H)-one], the 50% effective concentration (EC50) was in the range of 10 to 500 nM.

In turn, `CC(C)(C)c1ccc(/C(=C\[C@H]2CCC(=O)N2)c2ccc(CCCc3ccccc3)c(=O)[nH]2)cc1` [Example 4-197, 6-{(E)-1-(4-tert-Butylphenyl)-2-[(2R)-5-oxopyrrolidin-2-yl]ethenyl}-3-(3-phenylpropyl)pyridin-2(1H)-one] yielded an EC50 of 500 to 3000 nM.

The compound `CC(C)(C)c1ccc(/C(=C\[C@H]2CCC(=O)N2)c2ccc(CCCO)c(=O)[nH]2)cc1` [Example 4-198, 6-{(E)-1-(4-tert-Butylphenyl)-2-[(2R)-5-oxopyrrolidin-2-yl]ethenyl}-3-(3-hydroxypropyl)pyridin-2(1H)-one] showed an EC50 of 10 to 500 nM.

`O=C1CC[C@H](/C=C(\c2ccc(Cl)cc2)c2ccc(CCCCO)c(=O)[nH]2)N1` [Example 4-199, 6-{(E)-1-(4-Chlorophenyl)-2-[(2R)-5-oxopyrrolidin-2-yl]ethenyl}-3-(4-hydroxybutyl)pyridin-2(1H)-one] yielded an EC50 of 500 to 3000 nM.

Regarding `O=C1CC[C@H](/C=C(\c2ccc(C(F)(F)F)cc2)c2ccc(CCCCO)c(=O)[nH]2)N1` [Example 4-200, 3-(4-Hydroxybutyl)-6-{(E)-2-[(2R)-5-oxopyrrolidin-2-yl]-1-[4-(trifluoromethyl)phenyl]ethenyl}pyridin-2(1H)-one], the EC50 was 500 to 3000 nM.

In turn, `CC(C)(C)c1ccc(/C(=C\[C@H]2CCC(=O)N2)c2ccc(CCC(N)=O)c(=O)[nH]2)cc1` [Example 4-201, 3-(6-{(E)-1-(4-tert-Butylphenyl)-2-[(2R)-5-oxopyrrolidin-2-yl]ethenyl}-2-oxo-1,2-dihydropyridin-3-yl)propanamide] returned an EC50 of 500 to 3000 nM.

`CC(C)(C)c1ccc(/C(=C\[C@H]2CCC(=O)N2)c2ccc(C#N)c(=O)[nH]2)cc1` [Example 4-202, 6-{(E)-1-(4-tert-Butylphenyl)-2-[(2R)-5-oxopyrrolidin-2-yl]ethenyl}-2-oxo-1,2-dihydropyridine-3-carbonitrile] came in with an EC50 of 500 to 3000 nM.

For the compound `CC(C)(C)c1ccc(C(=C[C@H]2CCC(=O)N2)c2ccc(C3(O)CCC3)c(=O)[nH]2)cc1` [Example 4-203, 6-{1-(4-tert-Butylphenyl)-2-[(2R)-5-oxopyrrolidin-2-yl]ethenyl}-3-(1-hydroxycyclobutyl)pyridin-2(1H)-one], the EC50 was in the range of 3000 to 10000 nM.

`CC(C)(C)c1ccc(/C(=C\[C@H]2CCC(=O)N2)c2ccc(Cc3ccccc3)c(=O)[nH]2)cc1` [Example 4-205, 3-Benzyl-6-{(E)-1-(4-tert-butylphenyl)-2-[(2R)-5-oxopyrrolidin-2-yl]ethenyl}pyridin-2(1H)-one]: the EC50 lay in the range of 10 to 500 nM.

Turning to `CSc1ccc(/C(=C/[C@H]2CCC(=O)N2)c2ccc(C(C)(C)C)cc2)[nH]c1=O` [Example 4-206, 6-{(E)-1-(4-tert-Butylphenyl)-2-[(2R)-5-oxopyrrolidin-2-yl]ethenyl}-3-(methylsulfanyl)pyridin-2(1H)-one], the EC50 was in the range of 10 to 500 nM.

Compound `O=C1CC[C@H](C[C@H](c2ccc(Cl)c(Cl)c2)c2ccc(C3CC3)c(=O)[nH]2)N1` [Example 4-207, 3-Cyclopropyl-6-{(1R)-1-(3,4-dichlorophenyl)-2-[(2R)-5-oxopyrrolidin-2-yl]ethyl}pyridin-2(1H)-one] registered an EC50 of 10 to 500 nM.

In turn, `O=C1CC[C@H](C[C@@H](c2ccc(Cl)c(Cl)c2)c2ccc(C3CC3)c(=O)[nH]2)N1` [Example 4-208, 3-Cyclopropyl-6-{(1S)-1-(3,4-dichlorophenyl)-2-[(2R)-5-oxopyrrolidin-2-yl]ethyl}pyridin-2(1H)-one] came in with an EC50 of 3000 to 10000 nM.

On to `CCOc1ccc(C(C[C@H]2CCC(=O)N2)c2ccc(Cl)c(=O)[nH]2)cc1F` (stereo partly drawn) [Example 4-241, 3-Chloro-6-{1-(4-ethoxy-3-fluorophenyl)-2-[(2R)-5-oxopyrrolidin-2-yl]ethyl}pyridin-2(1H)-one], for which the concentration giving a half-maximal response (EC50) lay within 3000 to 10000 nM.

`Cc1ccc(/C(=C\[C@H]2CCC(=O)N2)c2ccc(Cl)c(=O)[nH]2)cc1` [Example 4-256, 3-Chloro-6-{(E)-1-(4-methylphenyl)-2-[(2R)-5-oxopyrrolidin-2-yl]ethenyl}pyridin-2(1H)-one] came in with an EC50 of 500 to 3000 nM.

With `CCc1ccc(/C(=C\[C@H]2CCC(=O)N2)c2ccc(Cl)c(=O)[nH]2)cc1Cl` [Example 4-257, 3-Chloro-6-{(E)-1-(3-chloro-4-ethylphenyl)-2-[(2R)-5-oxopyrrolidin-2-yl]ethenyl}pyridin-2(1H)-one], the EC50 lay within 10 to 500 nM.

As for `CC(C)Oc1ccc(/C(=C\[C@H]2CCC(=O)N2)c2ccc(C3CC3)c(=O)[nH]2)cc1Cl` [Example 4-258, 6-{(E)-1-[3-Chloro-4-(propan-2-yloxy)phenyl]-2-[(2R)-5-oxopyrrolidin-2-yl]ethenyl}-3-cyclopropylpyridin-2(1H)-one], the EC50 lay within 10 to 500 nM.

Consider `O=C1CC[C@H](/C=C(\c2ccc(C(F)(F)F)cc2)c2ccc(C(F)(F)F)c(=O)[nH]2)N1` [Example 4-259, 6-{(E)-2-[(2R)-5-Oxopyrrolidin-2-yl]-1-[4-(trifluoromethyl)phenyl]ethenyl}-3-(trifluoromethyl)pyridin-2(1H)-one], for which the EC50 lay in the range of 500 to 3000 nM.

`COc1ccc(/C(=C\[C@H]2CCC(=O)N2)c2ccc(C3CC3)c(=O)[nH]2)cc1Cl` [Example 4-260, 6-{(E)-1-(3-Chloro-4-methoxyphenyl)-2-[(2R)-5-oxopyrrolidin-2-yl]ethenyl}-3-cyclopropylpyridin-2(1H)-one] gave an EC50 of 10 to 500 nM.

With `O=C1CC[C@H](/C=C(\c2cccc(C(F)(F)F)c2)c2ccc(Cl)c(=O)[nH]2)N1` [Example 4-261, 3-Chloro-6-{(E)-2-[(2R)-5-oxopyrrolidin-2-yl]-1-[3-(trifluoromethyl)phenyl]ethenyl}pyridin-2(1H)-one], the EC50 fell in the range of 3000 to 10000 nM.

Source of the values: US8822503B2, “2-pyridone compounds” (Taisho Pharmaceutical Co., Ltd, priority 2009, dated 2014).
